# Where two headings read alike, the source gives them in different places.
# Columns and labels:
# [1] = target: T1, beta-catenin/TCF4 engagement (Homo sapiens, UniProt P35222); experiment: Nano-BRET target engagement assay (B-cat-Halo & TCF4-Luc in HEK293 cells); format: cell-based; settings: read-out: NanoBRET Abs IC50
# T1 construct: expressed in transfected cells; host or cells: HEK293
# T1 sequence (P35222 1-781): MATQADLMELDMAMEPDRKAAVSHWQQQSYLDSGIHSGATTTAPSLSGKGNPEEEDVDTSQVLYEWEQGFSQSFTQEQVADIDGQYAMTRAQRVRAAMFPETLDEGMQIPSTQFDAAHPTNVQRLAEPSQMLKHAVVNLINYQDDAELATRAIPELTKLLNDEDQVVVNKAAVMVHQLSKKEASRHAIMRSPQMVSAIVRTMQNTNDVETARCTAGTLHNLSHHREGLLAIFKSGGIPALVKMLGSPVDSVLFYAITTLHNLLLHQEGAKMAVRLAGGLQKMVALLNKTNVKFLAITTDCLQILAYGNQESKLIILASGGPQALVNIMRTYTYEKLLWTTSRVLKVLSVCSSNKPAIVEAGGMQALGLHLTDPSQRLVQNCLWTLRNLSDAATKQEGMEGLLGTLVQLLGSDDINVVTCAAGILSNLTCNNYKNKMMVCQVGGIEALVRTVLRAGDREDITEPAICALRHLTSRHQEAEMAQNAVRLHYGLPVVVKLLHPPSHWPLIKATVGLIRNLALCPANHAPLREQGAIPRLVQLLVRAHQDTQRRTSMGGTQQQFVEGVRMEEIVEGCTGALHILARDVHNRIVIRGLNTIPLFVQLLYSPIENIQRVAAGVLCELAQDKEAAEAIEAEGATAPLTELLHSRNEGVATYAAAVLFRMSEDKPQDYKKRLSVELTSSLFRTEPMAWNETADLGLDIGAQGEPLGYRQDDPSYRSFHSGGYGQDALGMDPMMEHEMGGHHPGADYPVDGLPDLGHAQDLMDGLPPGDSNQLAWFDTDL
# [2] = target: T2, full-length beta-Catenin (Uniprot ID P35222) (Homo sapiens, UniProt P35222); experiment: Fluorescence polarization IC50 (beta-catenin / 5FAM-TCF4 10-53 competition); format: binding; settings: read-out: beta-Catenin FP IC50
# T2 construct: 10 nM full-length beta-Catenin (Uniprot ID P35222)
# T2 sequence (P35222 1-781): T1 sequence (P35222 1-781)
IC50 ([1]; absolute IC50) [nM],IC50 ([2]; fluorescence polarization) [nM],IC50 [1] [nM],IC50 [2] [nM],SMILES
11800,30,,,"CC(=O)N1CCC[C@]12CC=CCCCC1(CCCC=CCCCOC(=O)N3CC[C@@](C(=O)N[C@@H](Cc4ccsc4)C(=O)N[C@@H](Cc4csc5ccccc45)C(=O)N[C@H](CO)[C@@H](C)O)(C3)NC(=O)[C@H](Cc3ccccc3)NC(=O)[C@H](Cc3ccccc3)NC(=O)[C@H](C)NC(=O)[C@H](C)NC(=O)[C@H](Cc3ccccc3C(=O)O)NC(=O)[C@H](CC(=O)O)NC1=O)NC(=O)[C@H](CC(C)(C)C)NC(=O)[C@H](CC(=O)O)NC2=O (single isomer, unassigned) [I-1669, Ac-PL3-Asp-Npg-B5-Asp-2COOHF-Ala-Ala-Phe-Phe-PyrS2-3Thi-BztA-Thro1]"
,213,> 20000,,"CC(=O)N1CCC[C@]12CC=CCC1(CC=CCCCCCOC(=O)N3CC[C@](C(=O)N[C@@H](Cc4ccsc4)C(=O)N[C@@H](Cc4csc5ccccc45)C(=O)N[C@@H](CCC(N)=O)C(N)=O)(C3)NC(=O)[C@H](CC(C)C)NC(=O)[C@H](Cc3ccccc3)NC(=O)[C@H](C)NC(=O)[C@H](C)NC(=O)[C@H](CC(=O)O)NC(=O)[C@H](CC(=O)O)NC1=O)NC(=O)[C@H](CC(C)(C)C)NC(=O)[C@H](CC(=O)O)NC2=O (single isomer, unassigned) [I-2158, Ac-PL3-Asp-Npg-B3-Asp-Asp-Ala-Ala-Phe-Leu-PyrS4-3Thi-BztA-Gln-NH2]"
,116,> 20000,,"CC(=O)N1CCC[C@]12CC=CCC1(CC=CCCCCCOC(=O)N3CC[C@](C(=O)N[C@@H](Cc4ccsc4)C(=O)N[C@@H](Cc4csc5ccccc45)C(=O)N[C@@H](CCC(N)=O)C(N)=O)(C3)NC(=O)[C@H](CC(C)C)NC(=O)[C@H](Cc3ccccc3)NC(=O)[C@H](C)NC(=O)[C@H](C)NC(=O)[C@H](CC(=O)O)NC(=O)[C@H](CC(=O)O)NC1=O)NC(=O)[C@H](CC(C)(C)C)NC(=O)[C@H](CC(=O)O)NC2=O (single isomer, unassigned) [I-2159, Ac-PL3-Asp-Npg-B3-Asp-Asp-Ala-Ala-Phe-Leu-PyrS4-3Thi-BztA-Gln-NH2]"
> 20000,12,,,"CC(=O)N1CCC[C@]12CC=CCCCC1(CCCC=CCCCOC(=O)N3CC[C@@](C(=O)N[C@@H](Cc4ccccc4Cl)C(=O)N[C@@H](Cc4csc5ccccc45)C(=O)N[C@@H](CCC(N)=O)C(N)=O)(C3)NC(=O)[C@H](CO)NC(=O)[C@H](Cc3ccccc3)NC(=O)[C@H](C)NC(=O)[C@H](CC(C)C)NC(=O)[C@H](CC(=O)O)NC(=O)[C@H](CC(=O)O)NC1=O)NC(=O)[C@H](Cc1ccccc1)NC(=O)[C@H](CC(=O)O)NC2=O (stereo partly drawn) [I-1153, Ac-PL3-Asp-Phe-B5-Asp-Asp-Leu-Ala-Phe-Ser-PyrS2-2C1F-BztA-Gln-NH2]"
28800,70,,,"CC(=O)N1CCC[C@]12CC=CCCCC1(CCCC=CCCCOC(=O)N3CC[C@@](C(=O)N[C@@H](Cc4ccsc4)C(=O)N[C@@H](Cc4csc5ccccc45)C(=O)N[C@@H](CO)C(N)=O)(C3)NC(=O)[C@H](CC(C)C)NC(=O)[C@H](Cc3ccccc3)NC(=O)[C@H](C)NC(=O)[C@H](C)NC(=O)[C@H]([C@@H](C)O)NC(=O)[C@H](CC(=O)O)NC1=O)NC(=O)[C@H](CC(C)(C)C)NC(=O)[C@H](CC(=O)O)NC2=O (stereo partly drawn) [I-1171, Ac-PL3-Asp-Npg-B5-Asp-Thr-Ala-Ala-Phe-Leu-PyrS2-3Thi-BztA-Ser-NH2]"
19400,45,,,"CC(=O)N1CCC[C@]12CC=CCCCC1(CCCC=CCCCOC(=O)N3CC[C@@](C(=O)N[C@@H](Cc4ccccc4Cl)C(=O)N[C@@H](Cc4csc5ccccc45)C(=O)N[C@@H](CO)C(N)=O)(C3)NC(=O)[C@H](CC(C)C)NC(=O)[C@H](Cc3ccccc3)NC(=O)[C@H](C)NC(=O)[C@H](C)NC(=O)[C@H]([C@@H](C)O)NC(=O)[C@H](CC(=O)O)NC1=O)NC(=O)[C@H](CC(C)(C)C)NC(=O)[C@H](CC(=O)O)NC2=O (stereo partly drawn) [I-1172, Ac-PL3-Asp-Npg-B5-Asp-Thr-Ala-Ala-Phe-Leu-PyrS2-2C1F-BztA-Ser-NH2]"
28800,54.5,,,"CC(=O)N1CCC[C@]12CC=CCCCC1(CCCC=CCCCOC(=O)N3CC[C@@](C(=O)N[C@@H](Cc4ccsc4)C(=O)N[C@@H](Cc4csc5ccccc45)C(=O)N[C@@H](CCC(N)=O)C(N)=O)(C3)NC(=O)[C@H](CC(C)C)NC(=O)[C@H](Cc3ccccc3)NC(=O)C(C)(C)NC(=O)[C@H](C)NC(=O)[C@H](CC(=O)O)NC(=O)[C@H](CC(=O)O)NC1=O)NC(=O)[C@H](CC(C)(C)C)NC(=O)[C@H](CC(=O)O)NC2=O (stereo partly drawn) [I-1178, Ac-PL3-Asp-Npg-B5-Asp-Asp-Ala-Aib-Phe-Leu-PyrS2-3Thi-BztA-Gln-NH2]"

# The next lines start with the compound.
SMILES,IC50 ([1]; absolute IC50) [nM],IC50 ([2]; fluorescence polarization) [nM],IC50 [1] [nM],IC50 [2] [nM]
"CC(=O)N1CCC[C@]12CC=CCCCC1(CCCC=CCCCOC(=O)N3CC[C@@](C(=O)N[C@@H](Cc4ccsc4)C(=O)N[C@@H](Cc4csc5ccccc45)C(=O)N[C@H](CO)[C@@H](C)O)(C3)NC(=O)[C@H](CC(C)C)NC(=O)[C@H](Cc3ccccc3)NC(=O)[C@H](C)NC(=O)[C@H](C)NC(=O)[C@H](Cc3ccccc3C(=O)O)NC(=O)[C@H](CC(=O)O)NC1=O)NC(=O)[C@H](CC(C)(C)C)NC(=O)[C@H](CC(=O)O)NC2=O (single isomer, unassigned) [I-1670, Ac-PL3-Asp-Npg-B5-Asp-2COOHF-Ala-Ala-Phe-Leu-PyrS2-3Thi-BztA-Thro1]",7900,11,,
"CC(=O)N1CCC[C@]12CC=CCCCC1(CCCC=CCCCOC(=O)N3CC[C@@](C(=O)N[C@@H](Cc4ccsc4)C(=O)N[C@@H](Cc4csc5ccccc45)C(=O)N[C@@H](CCC(N)=O)C(N)=O)(C3)NC(=O)[C@H](CC(C)C)NC(=O)C(Cc3cccc(C(=O)Oc4ccccc4)c3)NC(=O)[C@H](C)NC(=O)[C@H](C)NC(=O)[C@H](CN(CC(=O)O)CC(F)(F)F)NC(=O)[C@H](CC(=O)O)NC1=O)NC(=O)[C@H](CC(C)(C)C)NC(=O)[C@H](CC(=O)O)NC2=O (single isomer, unassigned) [I-2151, Ac-PL3-Asp-Npg-B5-Asp-TfeGA-Ala-Ala-3CO2PhF-Leu-PyrS2-3Thi-BztA-Gln-NH2]",,58,14600,
"CC(=O)N1CCC[C@]12CC=CCCCC1(CCCC=CCCCOC(=O)N3CC[C@@](C(=O)N[C@@H](Cc4ccccc4Cl)C(=O)N[C@@H](Cc4csc5ccccc45)C(=O)N[C@H](CO)Cc4ccccc4)(C3)NC(=O)[C@H](CC(N)=O)NC(=O)[C@H](Cc3ccccc3)NC(=O)[C@H](C)NC(=O)[C@H](C)NC(=O)[C@H](CC(=O)O)NC(=O)[C@H](CC(=O)O)NC1=O)NC(=O)[C@H](CC(C)(C)C)NC(=O)[C@H](CC(=O)O)NC2=O (stereo partly drawn) [I-1083, Ac-PL3-Asp-Npg-B5-Asp-Asp-Ala-Ala-Phe-Asn-PyrS2-2C1F-BztA-Pheo1]",18800,,,8
"CC(=O)N1CCC[C@]12CC=CCCCC1(CCCC=CCCCOC(=O)N3CC[C@@](C(=O)N[C@@H](Cc4ccccc4Cl)C(=O)N[C@@H](Cc4csc5ccccc45)C(=O)N[C@@H](CCO)C(N)=O)(C3)NC(=O)[C@H](CO)NC(=O)[C@H](Cc3ccccc3)NC(=O)[C@H](C)NC(=O)[C@H](C)NC(=O)[C@H](CC(=O)O)NC(=O)[C@H](CC(=O)O)NC1=O)NC(=O)[C@H](CC1CCCCC1)NC(=O)[C@H](CC(=O)O)NC2=O (stereo partly drawn) [I-1137, Ac-PL3-Asp-Cha-B5-Asp-Asp-Ala-Ala-Phe-Ser-PyrS2-2C1F-BztA-Hse-NH2]",12000,8,,
"CC(=O)N1CCC[C@]12CC=CCCCC1(CCCC=CCCCOC(=O)N3CC[C@@](C(=O)N[C@@H](Cc4ccccc4Cl)C(=O)N[C@@H](Cc4csc5ccccc45)C(=O)N[C@@H](CC(C)C)C(N)=O)(C3)NC(=O)[C@H](CO)NC(=O)[C@H](Cc3ccccc3)NC(=O)[C@H](C)NC(=O)[C@H](C)NC(=O)[C@H](CC(=O)O)NC(=O)[C@H](CC(=O)O)NC1=O)NC(=O)[C@H](CC1CCCCC1)NC(=O)[C@H](CC(=O)O)NC2=O (stereo partly drawn) [I-1138, Ac-PL3-Asp-Cha-B5-Asp-Asp-Ala-Ala-Phe-Ser-PyrS2-2C1F-BztA-Leu-NH2]",19800,18,,
"CC(=O)N1CCC[C@]12CC=CCCCC1(CCCC=CCCCOC(=O)N3CC[C@@](C(=O)N[C@@H](Cc4ccccc4Cl)C(=O)N[C@@H](Cc4csc5ccccc45)C(=O)N[C@H](C(N)=O)[C@@H](C)O)(C3)NC(=O)[C@H](CC(C)C)NC(=O)[C@H](Cc3ccccc3)NC(=O)[C@H](C)NC(=O)[C@H](C)NC(=O)[C@H](CC(=O)O)NC(=O)[C@H](CC(=O)O)NC1=O)NC(=O)[C@H](CC1CCCCC1)NC(=O)[C@H](CC(=O)O)NC2=O (stereo partly drawn) [I-1139, Ac-PL3-Asp-Cha-B5-Asp-Asp-Ala-Ala-Phe-Leu-PyrS2-2C1F-BztA-Thr-NH2]",18000,22,,
